Data published in patent publication US20110028445A1, “Urea derivatives of benzomorphanes and related scaffolds, medicaments containing such compounds and their use” (BOEHRINGER INGELHEIM INTERNATIONAL GMBH, priority 2008, published 2011).

Each compound was assayed against T1, 11β-HSD1 (Homo sapiens, UniProt P28845) (assay: In vitro inhibition of 11β-HSD1, HTRF detection of cortisol generated by human liver microsomes). Conditions: compound concentration 1 μM, 100% indicates no inhibition, zero or below zero indicates complete inhibition, cortisone 80 nM, 1 hour at 37° C., read-out: % CTL at 1 μM.
T1 construct: detecting cortisol generated from cortisterone by human liver microsomes; from tissue; host or cells: human liver microsomes
T1 sequence (P28845 whole entry): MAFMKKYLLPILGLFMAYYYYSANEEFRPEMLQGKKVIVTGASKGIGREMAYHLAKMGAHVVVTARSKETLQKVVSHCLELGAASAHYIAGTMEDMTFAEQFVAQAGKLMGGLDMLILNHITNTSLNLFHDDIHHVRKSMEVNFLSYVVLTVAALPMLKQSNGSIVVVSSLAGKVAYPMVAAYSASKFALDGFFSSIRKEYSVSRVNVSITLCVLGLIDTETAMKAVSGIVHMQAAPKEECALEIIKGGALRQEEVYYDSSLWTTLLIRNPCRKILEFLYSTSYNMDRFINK
Assay type: biochemical
Experimental: Briefly, compounds were incubated for 1 hour at 37° C. in Tris buffer (20 mM tris, 5 mM EDTA, pH 6.0) containing NADPH (200 μM) and cortisone (80 nM). Cortisol generated in the reaction is then detected with a competitive immunoassay, involving two HTRF conjugates: cortisol linked to XL665 and anti-cortisol antibody labeled with Europium cryptate. The incubation period for detection reaction was typically 2 hours. The amount of cortisol is determined by reading the time-resolved fluorescence of the wells (Ex 320/75 nm; Em 615/8.5 nm and 665/7.5 nm). The ratio of the two emission signals is then calculated (Em665*10000/Em615). […] Each assay also contained a calibration curve with cortisol to transform the fluorescent data into cortisol concentrations. Percent inhibition of each compound was determined relative to the carbenoxolone signal and IC50 curves were generated.
The % CTL values of some example compounds at a concentration of 1 μM are provided in the following Table 2 wherein 100% indicates no inhibition and a value of zero or below zero indicates complete inhibition. The measurement of % CTL is described hereinbefore.

| Structure (SMILES) | remaining activity at 1 µM |
| --- | --- |
| CC1(C)[C@H]2Cc3c(O)cccc3[C@]1(C)CCN2C(=O)N1CCc2cc(O)ccc21 [Example 53] | 7% |
| CC1(O)CCN(C(=O)N2CC[C@@]3(C)c4ccccc4C[C@@H]2C3(C)C)CC1 [Example 54] | -25% |
| CC1(C)[C@H]2Cc3c(O)cccc3[C@]1(C)CCN2C(=O)N1CCCC2(CCNC2=O)C1 (some centres unmarked) [Example 55] | -31% |
| CC1(C)[C@H]2Cc3c(O)cccc3[C@]1(C)CCN2C(=O)N1CCc2ccc(O)cc2C1 [Example 58] | -37% |
| CC1(C)[C@H]2Cc3c(O)cccc3[C@]1(C)CCN2C(=O)N1CCCC(c2nnn[nH]2)C1 (some centres unmarked) [Example 59] | 70% |
| CC1(C)[C@H]2Cc3ccccc3[C@]1(C)CCN2C(=O)N1CCCC2(CCCNC2=O)C1 (some centres unmarked) [Example 60] | -19% |
| CC1(C)[C@H]2Cc3ccccc3[C@]1(C)CCN2C(=O)N1CCC(c2ccccc2)C1 (some centres unmarked) [Example 61] | 7% |
| CCOC(=O)[C@H]1CCCN(C(=O)N2CC[C@@]3(C)c4ccccc4C[C@@H]2C3(C)C)C1 [Example 62] | 13% |
| CCOC(=O)C1CCCN(C(=O)N2CC[C@@]3(C)c4ccccc4C[C@@H]2C3(C)C)C1 (some centres unmarked) [Example 63] | 47% |
| CC1(C)[C@H]2Cc3ccccc3[C@]1(C)CCN2C(=O)N1CCC[C@H](CO)C1 [Example 64] | -33% |
| CC(C)(O)C1CCN(C(=O)N2CC[C@@]3(C)c4ccccc4C[C@@H]2C3(C)C)CC1 [Example 65] | 2% |
| CC(C)(O)[C@@H]1CCCN(C(=O)N2CC[C@@]3(C)c4ccccc4C[C@@H]2C3(C)C)C1 [Example 66, [(R)-3-(1-Hydroxy-1-methyl-ethyl)-piperidin-1-yl]-[(2R,6S)-6,11,11-trimethyl-1,2,5,6-tetrahydro-4H-2,6-methano-benzo[d]azocin-3-yl]-methanone] | -16% |
| CC1(C)[C@H]2Cc3ccccc3[C@]1(C)CCN2C(=O)N1CCOC[C@H]1c1ccccc1 [Example 67] | 71% |
| CC1(C)[C@H]2Cc3ccccc3[C@]1(C)CCN2C(=O)N1CCOCC1c1ccccc1 (some centres unmarked) [Example 68] | 87% |
| CC(C)(O)[C@H]1CCCN(C(=O)N2CC[C@@]3(C)c4ccccc4C[C@@H]2C3(C)C)C1 [Example 69] | 6% |
| CC1(C)[C@H]2Cc3ccccc3[C@]1(C)CCN2C(=O)N1CCC(O)CC1 [Example 70] | -15% |
| CC1(C)[C@H]2Cc3ccccc3[C@]1(C)CCN2C(=O)N1CCC[C@@H](CO)C1 [Example 71, [(R)-3-Hydroxymethyl-piperidin-1-yl]-[(2R,6S)-6,11,11-trimethyl-1,2,5,6-tetrahydro-4H-2,6-methano-benzo[d]azocin-3-yl)-methanone] | -18% |
| CC1(C)[C@H]2Cc3ccccc3[C@]1(C)CCN2C(=O)N1CCC(O)(C(F)(F)F)CC1 [Example 72] | -11% |
| CC1(C)[C@H]2Cc3ccccc3[C@]1(C)CCN2C(=O)N1[C@@H]2CC[C@H]1C[C@](O)(C(F)(F)F)C2 [Example 73] | -6% |
| CC1(C)[C@H]2Cc3ccccc3[C@]1(C)CCN2C(=O)N1[C@@H]2CC[C@H]1C[C@@H](O)C2 [Example 74] | -17% |
| COC(=O)CC1(c2ccccc2)CCN(C(=O)N2CC[C@@]3(C)c4ccccc4C[C@@H]2C3(C)C)C1 (some centres unmarked) [Example 75] | 26% |
| CC1(C)[C@H]2Cc3ccccc3[C@]1(C)CCN2C(=O)N1[C@@H]2CC[C@H]1CC(=O)C2 [Example 76] | -10% |
| CC1(C)[C@H]2Cc3ccccc3[C@]1(C)CCN2C(=O)N1CCC(CCO)(c2ccccc2)C1 (some centres unmarked) [Example 77] | 30% |
| CC(C)(O)CC1(c2ccccc2)CCN(C(=O)N2CC[C@@]3(C)c4ccccc4C[C@@H]2C3(C)C)C1 (some centres unmarked) [Example 78] | 61% |
| CC1(C)[C@H]2Cc3ccccc3[C@]1(C)CCN2C(=O)N1[C@@H]2CC[C@H]1C[C@H](O)C2 [Example 79, (exo-3-Hydroxy-8-aza-bicyclo[3.2.1]oct-8-yl)-[(2R,6S)-6,11,11-trimethyl-1,2,5,6-tetrahydro-4H-2,6-methano-benzo[d]azocin-3-yl]-methanone] | 13% |
| CC1(C)[C@H]2Cc3ccccc3[C@]1(C)CCN2C(=O)N1[C@@H]2CC[C@H]1C[C@@](O)(C(F)(F)F)C2 [Example 80] | 70% |
